Measurements taken from ChEMBL document CHEMBL3112450, “Synthesis and in vitro antitumor evaluation of primary amine substituted quinazoline linked benzimidazole” (Bioorg Med Chem Lett, 2014).

What was measured:
Type in all cases: functional
[1] = Cytotoxicity against human EKVX cells assessed as cell growth at 10^-5 M after 48 hrs by SRB assay; conditions: read-out: Activity
SF-539 = experiment: Cytotoxicity against human SF539 cells after 48 hrs by SRB assay; conditions: SF-539, 48 h
T47D = experiment: Cytotoxicity against human T47D cells assessed as cell growth at 10^-6 M after 48 hrs by SRB assay; conditions: read-out: Activity
TK-10 = experiment: Cytotoxicity against human TK10 cells after 48 hrs by SRB assay; conditions: TK-10, 48 h
BT-549 = experiment: Cytotoxicity against human BT549 cells assessed as cell growth at 10^-8 M after 48 hrs by SRB assay; conditions: BT-549, 48 h, read-out: Activity
SK-OV-3 = experiment: Cytotoxicity against human SKOV3 cells after 48 hrs by SRB assay; conditions: SK-OV-3, 48 h
SF-295 = experiment: Cytotoxicity against human SF295 cells assessed as cell growth at 10^-6 M after 48 hrs by SRB assay; conditions: SF-295, 48 h, read-out: Activity
SW-620 [2] = experiment: Cytotoxicity against human SW620 cells assessed as cell growth at 10^-7 M after 48 hrs by SRB assay; conditions: SW-620, 48 h, read-out: Activity
PC-3 = experiment: Cytotoxicity against human PC3 cells assessed as cell growth at 10^-6 M after 48 hrs by SRB assay; conditions: PC-3, 48 h, read-out: Activity
SF-268 [3] = experiment: Cytotoxicity against human SF268 cells assessed as cell growth at 10^-8 M after 48 hrs by SRB assay; conditions: SF-268, 48 h, read-out: Activity
ACHN [4] = experiment: Cytotoxicity against human ACHN cells assessed as cell growth at 10^-8 M after 48 hrs by SRB assay; conditions: read-out: Activity
[5] = Cytotoxicity against human UO31 cells assessed as cell growth at 10^-6 M after 48 hrs by SRB assay; conditions: UO-31, 48 h, read-out: Activity
U-251 = experiment: Cytotoxicity against human U251 cells assessed as cell growth at 10^-4 M after 48 hrs by SRB assay; conditions: U-251, 48 h, read-out: Activity
SW-620 [6] = experiment: Cytotoxicity against human SW620 cells assessed as cell growth at 10^-4 M after 48 hrs by SRB assay; conditions: SW-620, 48 h, read-out: Activity
786-0 = experiment: Cytotoxicity against human 786-0 cells assessed as cell growth at 10^-7 M after 48 hrs by SRB assay; conditions: 786-0, 48 h, read-out: Activity
[7] = Cytotoxicity against human NCI-ADR-RES cells assessed as cell growth at 10^-7 M after 48 hrs by SRB assay; conditions: read-out: Activity
MOLT-4 = experiment: Cytotoxicity against human MOLT4 cells assessed as cell growth at 10^-8 M after 48 hrs by SRB assay; conditions: MOLT-4, 48 h, read-out: Activity
MDA-MB-231 = experiment: Cytotoxicity against human MDA-MB-231 cells assessed as cell growth at 10^-4 M after 48 hrs by SRB assay; conditions: MDA-MB-231, 48 h, read-out: Activity
ACHN [8] = experiment: Cytotoxicity against human ACHN cells after 48 hrs by SRB assay
NCI-H226 [9] = experiment: Cytotoxicity against human NCI-H226 cells assessed as cell growth at 10^-8 M after 48 hrs by SRB assay; conditions: NCI-H226, 48 h, read-out: Activity
SW-620 [10] = experiment: Cytotoxicity against human SW620 cells after 48 hrs by SRB assay; conditions: SW-620, 48 h
HL-60(TB) [11] = experiment: Cytotoxicity against human HL-60(TB) cells after 48 hrs by SRB assay; conditions: HL-60, 48 h
MDA-MB-468 = experiment: Cytotoxicity against human MDA-MB-468 cells assessed as cell growth at 10^-8 M after 48 hrs by SRB assay; conditions: MDA-MB-468, 48 h, read-out: Activity
A498 = experiment: Cytotoxicity against human A498 cells assessed as cell growth at 10^-6 M after 48 hrs by SRB assay; conditions: A498, 48 h, read-out: Activity
HL-60(TB) [12] = experiment: Cytotoxicity against human HL-60(TB) cells assessed as cell growth at 10^-6 M after 48 hrs by SRB assay; conditions: HL-60, 48 h, read-out: Activity
RPMI-8226 = experiment: Cytotoxicity against human RPMI8226 cells after 48 hrs by SRB assay; conditions: RPMI-8226, 48 h
[13] = Cytotoxicity against human OVCAR4 cells assessed as cell growth at 10^-6 M after 48 hrs by SRB assay; conditions: OVCAR-4, 48 h, read-out: Activity
UACC-62 = experiment: Cytotoxicity against human UACC62 cells assessed as cell growth at 10^-6 M after 48 hrs by SRB assay; conditions: UACC-62, 48 h, read-out: Activity
HCT-116 = experiment: Cytotoxicity against human HCT116 cells assessed as cell growth at 10^-7 M after 48 hrs by SRB assay; conditions: HCT-116, 48 h, read-out: Activity
HT-29 = experiment: Cytotoxicity against human HT-29 cells assessed as cell growth at 10^-8 M after 48 hrs by SRB assay; conditions: HT-29, 48 h, read-out: Activity
SF-268 [14] = experiment: Cytotoxicity against human SF268 cells after 48 hrs by SRB assay; conditions: SF-268, 48 h
OVCAR-8 = experiment: Cytotoxicity against human OVCAR8 cells assessed as cell growth at 10^-8 M after 48 hrs by SRB assay; conditions: OVCAR-8, 48 h, read-out: Activity
NCI-H226 [15] = experiment: Cytotoxicity against human NCI-H226 cells assessed as cell growth at 10^-4 M after 48 hrs by SRB assay; conditions: NCI-H226, 48 h, read-out: Activity
SK-MEL-2 = experiment: Cytotoxicity against human SK-MEL-2 cells assessed as cell growth at 10^-7 M after 48 hrs by SRB assay; conditions: SK-MEL-2, 48 h, read-out: Activity
HCC 2998 = experiment: Cytotoxicity against human HCC2998 cells assessed as cell growth at 10^-8 M after 48 hrs by SRB assay; conditions: HCC 2998, 48 h, read-out: Activity
NCI-H460 [16] = experiment: Cytotoxicity against human NCI-H460 cells assessed as cell growth at 10^-7 M after 48 hrs by SRB assay; conditions: NCI-H460, 48 h, read-out: Activity
NCI-H460 [17] = experiment: Cytotoxicity against human NCI-H460 cells assessed as cell growth at 10^-6 M after 48 hrs by SRB assay; conditions: NCI-H460, 48 h, read-out: Activity
[18] = Cytotoxicity against human OVCAR5 cells assessed as cell growth at 10^-8 M after 48 hrs by SRB assay; conditions: OVCAR-5, 48 h, read-out: Activity

## C=CCn1c(C)nc2ccc(Nc3nc(Nc4ncccn4)nc4ccccc34)cc21
[1]
  growth at 10 µM: 87.2%

## C=CCn1c(C)nc2ccc(Nc3nc(NCCO)nc4ccccc34)cc21
[1]
  growth at 10 µM: 95.5%

## C=CCn1c(C)nc2cc(Nc3nc(Nc4ccc5nc(C)n(CC=C)c5c4)c4ccccc4n3)ccc21
SF-539
  GI50: 1.1 µM
  LC50 (concentration giving 50% net cell kill): 4.79 µM
  TGI: 2.3 µM
T47D
  growth at 1 µM: -4%
TK-10
  GI50: 0.522 µM
  LC50: 4.13 µM
  TGI: 1.71 µM
BT-549
  growth at 0.01 µM: 100%
SK-OV-3
  GI50: 1.9 µM
  TGI: 3.77 µM
SF-295
  growth at 1 µM: 78%
SW-620 [2]
  growth at 0.1 µM: 98%
PC-3
  growth at 1 µM: 1%
SF-268 [3]
  growth at 0.01 µM: 95%
ACHN [4]
  growth at 0.01 µM: 105%
[5]
  growth at 1 µM: 72%
U-251
  growth at 100 µM: -31%
SW-620 [6]
  growth at 100 µM: -8%
786-0
  growth at 0.1 µM: 98%
[7]
  growth at 0.1 µM: 100%
MOLT-4
  growth at 0.01 µM: 98%
MDA-MB-231
  growth at 100 µM: -46%
ACHN [8]
  GI50: 0.61 µM
  TGI: 1.83 µM
NCI-H226 [9]
  growth at 0.01 µM: 93%
SW-620 [10]
  GI50: 0.195 µM
  TGI: 0.388 µM
HL-60(TB) [11]
  GI50: 1.78 µM
  TGI: 3.65 µM
MDA-MB-468
  growth at 0.01 µM: 106%
A498
  growth at 1 µM: 93%
HL-60(TB) [12]
  growth at 1 µM: 90%
RPMI-8226
  GI50: 1.24 µM
  LC50: > 100 µM
  TGI: 3.93 µM
[13]
  growth at 1 µM: -16%
UACC-62
  growth at 1 µM: 66%
HCT-116
  growth at 0.1 µM: 102%
HT-29
  growth at 0.01 µM: 103%
SF-268 [14]
  GI50: 1.04 µM
  LC50 (50% lethal concentration): 4.73 µM
  TGI: 2.21 µM
OVCAR-8
  growth at 0.01 µM: 100%
NCI-H226 [15]
  growth at 100 µM: -12%
SK-MEL-2
  growth at 0.1 µM: 98%
HCC 2998
  growth at 0.01 µM: 99%
NCI-H460 [16]
  growth at 0.1 µM: 103%
NCI-H460 [17]
  growth at 1 µM: -53%
[18]
  growth at 0.01 µM: 93%

## C=CCn1c(C)nc2ccc(Nc3nc(Nc4ccc(F)cc4)nc4ccccc34)cc21
SF-539
  GI50: 12.3 µM
  LC50 (concentration giving 50% net cell kill): 53.9 µM
  TGI: 25.7 µM
T47D
  growth at 1 µM: 79%
TK-10
  GI50: 6.83 µM
  LC50: 75.5 µM
  TGI: 24.6 µM
BT-549
  growth at 0.01 µM: 88%
SK-OV-3
  GI50: 1.93 µM
  TGI: 3.74 µM
SF-295
  growth at 1 µM: 91%
SW-620 [2]
  growth at 0.1 µM: 95%
PC-3
  growth at 1 µM: 84%
SF-268 [3]
  growth at 0.01 µM: 88%
ACHN [4]
  growth at 0.01 µM: 98%
[5]
  growth at 1 µM: 83%
U-251
  growth at 100 µM: -80%
SW-620 [6]
  growth at 100 µM: -48%
786-0
  growth at 0.1 µM: 98%
[7]
  growth at 0.1 µM: 97%
MOLT-4
  growth at 0.01 µM: 98%
MDA-MB-231
  growth at 100 µM: -37%
ACHN [8]
  GI50: 1.99 µM
  LC50: 9.33 µM
  TGI: 4.31 µM
NCI-H226 [9]
  growth at 0.01 µM: 92%
SW-620 [10]
  GI50: 2.8 µM
  LC50 (concentration killing 50% of cells): > 100 µM
  TGI: 10.7 µM
HL-60(TB) [11]
  GI50: 4.95 µM
  LC50: > 100 µM
  TGI: 23.3 µM
MDA-MB-468
  growth at 0.01 µM: 78%
A498
  growth at 1 µM: 65%
HL-60(TB) [12]
  growth at 1 µM: 104%
RPMI-8226
  GI50: 1.85 µM
  LC50: > 100 µM
  TGI: 4.57 µM
[13]
  growth at 1 µM: 85%
UACC-62
  growth at 1 µM: 91%
HCT-116
  growth at 0.1 µM: 97%
HT-29
  growth at 0.01 µM: 100%
SF-268 [14]
  GI50: 8.69 µM
  LC50 (50% lethal concentration): 82.3 µM
  TGI: 27.8 µM
OVCAR-8
  growth at 0.01 µM: 98%
NCI-H226 [15]
  growth at 100 µM: -5%
SK-MEL-2
  growth at 0.1 µM: 101%
HCC 2998
  growth at 0.01 µM: 95%
NCI-H460 [16]
  growth at 0.1 µM: 103%
NCI-H460 [17]
  growth at 1 µM: 88%
[18]
  growth at 0.01 µM: 101%

## C=CCn1c(C)nc2cc(Nc3nc(Nc4ccc5nc(C)n(CC=C)c5c4)nc4ccccc34)ccc21
[1]
  growth at 10 µM: 97.1%

## C=CCn1c(C)nc2ccc(Nc3nc(Sc4ccc(N)cc4)nc4ccccc34)cc21
[1]
  growth at 10 µM: 96.5%
